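Dose response: 5 concentrations. Exposure: 48 h. Format: 96-well plates. Endpoint: linear interpolation; highest concentration if not reached. Definition used: TGI = concentration required for complete inhibition of growth.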
Experiments:
Assay in all cases: inhibition of tumour cell growth, NCI panel, 48 h
EKVX NSCLC = test system: EKVX NSCLC
NCI/ADR-RES ovarian = test system: NCI/ADR-RES ovarian
HCC-2998 colon = test system: HCC-2998 colon
LOX IMVI melanoma = test system: LOX IMVI melanoma
MDA-MB-231 breast = test system: MDA-MB-231 breast
SR leukemia = test system: SR leukemia
M14 melanoma = test system: M14 melanoma
SF-268 CNS = test system: SF-268 CNS
SNB-19 CNS = test system: SNB-19 CNS
OVCAR-3 ovarian = test system: OVCAR-3 ovarian
CAKI-1 renal = test system: CAKI-1 renal
MALME-3M melanoma = test system: MALME-3M melanoma
NCI-H23 lung = test system: NCI-H23 lung
SF-295 CNS = test system: SF-295 CNS
HS 578T breast = test system: HS 578T breast
HL-60(TB) leukemia = test system: HL-60(TB) leukemia
RXF 393 renal = test system: RXF 393 renal
TK-10 renal = test system: TK-10 renal
MOLT-4 leukemia = test system: MOLT-4 leukemia
U251 CNS = test system: U251 CNS
NCI-H522 lung = test system: NCI-H522 lung
CCRF-CEM leukemia = test system: CCRF-CEM leukemia
SK-MEL-5 melanoma = test system: SK-MEL-5 melanoma
HT29 colon = test system: HT29 colon
MDA-N = test system: MDA-N
HCT-15 colon = test system: HCT-15 colon
HOP-62 NSCLC = test system: HOP-62 NSCLC
SK-OV-3 ovarian = test system: SK-OV-3 ovarian
786-0 renal = test system: 786-0 renal
NCI-H226 lung = test system: NCI-H226 lung
ACHN renal = test system: ACHN renal
COLO 205 colon = test system: COLO 205 colon
A498 renal = test system: A498 renal
A549 NSCLC = test system: A549 NSCLC
SK-MEL-28 melanoma = test system: SK-MEL-28 melanoma
OVCAR-4 ovarian = test system: OVCAR-4 ovarian
MDA-MB-435 = test system: MDA-MB-435
SNB-75 CNS = test system: SNB-75 CNS
OVCAR-8 ovarian = test system: OVCAR-8 ovarian
KM12 colon = test system: KM12 colon
UACC-257 melanoma = test system: UACC-257 melanoma
SF-539 CNS = test system: SF-539 CNS
RPMI-8226 leukemia = test system: RPMI-8226 leukemia
K-562 leukemia = test system: K-562 leukemia
SN12C renal = test system: SN12C renal
UACC-62 melanoma = test system: UACC-62 melanoma
HCT-116 colon = test system: HCT-116 colon
HOP-92 NSCLC = test system: HOP-92 NSCLC
DU-145 prostate = test system: DU-145 prostate
PC-3 prostate = test system: PC-3 prostate
NCI-H460 lung = test system: NCI-H460 lung
UO-31 renal = test system: UO-31 renal
SW-620 colon = test system: SW-620 colon
IGROV1 ovarian = test system: IGROV1 ovarian
OVCAR-5 ovarian = test system: OVCAR-5 ovarian

Measured: TGI

O=c1c2cc([N+](=O)[O-])ccc2n2n1CCCCC2
> 100 µM: all assays above

From PubChem BioAssay (NCI)
